# Test results as given in patent US11465965B2, “Double-headed protease inhibitor” (UBE INDUSTRIES, LTD., priority 2017, dated 2022).
# Structures can show the parent of a compound that is named as a salt. Where two headings read alike, the source gives them in different places.
# Columns and labels:
# [1] = test system: DIO mouse; experiment: Anti-obesity effect test using DIO mouse; format: in vivo; conditions: 336 h, DIO mice, vs vehicle group, read-out: Weight loss rate; for inhibition in vivo at 100 mg/kg: oral 100 mg/kg once daily for 2 weeks; for inhibition in vivo at 50 mg/kg: oral 50 mg/kg once daily for 2 weeks
# Method: (Test Example 4): Anti-Obesity Effect Test Using DIO Mouse
# Diet-induced obesity (DIO) mice (D-12492 diet, male, C57BL-DIO, 26 to 28-week old) were orally administered with a 0.5 W/V % methylcellulose suspension comprising each test compound (Compound administration group, 5 or 6 mice/group) or a 0.5 W/V % methylcellulose suspension (Compound non-administration group (Vehicle group), 6 mice/group) once daily for 2 weeks. Weight loss rate was calculated by the following equation. Weight loss rate (%) of each Compound administration group−(1−average weight at the last day of the test of each Compound administration group/average weight at the last day of the test of Vehicle group)×100
# [2] = Rat pharmacokinetic (PK) test (plasma concentration after oral administration); conditions: male, SD
# Method: Each test compound was suspended in a 0.5 W/V % methylcellulose 400 solution to prepare a suspension, and the resulting suspension was orally administered to a male SD rat of 7 to 8-week old (weight: 180 to 250 g). After 0.25, 0.5, 1, 2, 4, 8, and 24 hour(s) of the administration of each test compound, blood (EDTA-added blood) was collected from jugular vein under isoflurane inhalation anesthesia. […] To the resulting blood plasma was added acetonitrile, a mixed solvent of acetonitrile and water (1:1 (V/V)), or a mixed solvent of acetonitrile and 0.1 M hydrochloric acid (1:1 (V/V)), then the resulting mixture was mixed at 750 rpm for 3 minutes in a shaker, and subjected to centrifugal separation at 3700 rpm for 2 minutes in a centrifuge to remove proteins. The resulting sample was subjected to LC (liquid chromatography)/MS (mass spectrometry) measurement under the following measurement conditions.
# Each compound concentration in blood plasma at each time of blood collection was calculated according to the internal standard method, and, area under the plasma concentration vs. time curve (AUCall (Area Under Curve)) was calculated according to the trapezoidal method.
# The LC and MS systems used in the present test are as follows.
# LC: LC20 or LC30 HPLC system manufactured by Shimadzu Corporation
# Column: Phenomenex Kinetex C18 (50×2.1 mm, 2.6 μm)
# Column temperature: 40° C.
# Mobile phase A: aqueous solution with 0.1% formic acid, Mobile phase B: 50% acetonitrile/methanol solution with 0.1% formic acid
# [3] = molecular target: T1, Human recombinant trypsin (Homo sapiens, UniProt P07477); experiment: Human trypsin inhibition test; format: biochemical; conditions: 20 minutes after reaction start, read-out: Inhibition rate (trypsin); for inhibition at 0.01 µM: compound concentration 10 nM; for inhibition at 0.1 µM: compound concentration 100 nM; for inhibition at 0.001 µM: compound concentration 1 nM
# T1 construct: purchased Wako Pure Chemical Industries, Ltd. 206-17171
# Method: (Test Example 2): Human Trypsin Inhibition Test
# Human recombinant trypsin (manufactured by Wako Pure Chemical Industries, Ltd., code no.: 206-17171) was diluted with an assay buffer (0.1 M Tris-HCl (pH8.0), 0.15 M NaCl, 10 mM CaCl2, 0.05% Brij35) to prepare a 10 ng/mL enzyme solution. Then, Boc-Phe-Ser-Arg-MCA (manufactured by PEPTIDE INSTITUTE, INC., code no.: 3107-v) was diluted with the assay buffer to prepare a 40 μM substrate solution. Each test compound was dissolved into DMSO, then diluted with the assay buffer 100 times, and further appropriately diluted with an assay buffer comprising 1% DMSO to prepare each compound solution. 10 μL of the compound solution, 15 μL of the assay buffer, and 50 μL of the substrate solution were added to a 96 well black plate (manufactured by Thermo Fisher Scientific Inc., code no.: 9502867), mixed, and then 25 μL of the enzyme solution was added thereto, and mixed to start the reaction. Fluorescence intensities at excitation wavelength 355 nm and fluorescence wavelength of 460 nm were measured by using a fluorescence plate reader (Flex station 3) (Test compound addition group). Also, the same reaction as described above except for not adding each test compound was carried out (Test compound non-addition group). Additionally, the same reaction as described above except for not adding each test compound and the enzyme was carried out (Control group). Inhibition rate was calculated by the following equation using fluorescence intensity after 20 minutes of reaction start. Inhibition rate (%)=(1−(fluorescence intensity of Test compound addition group−fluorescence intensity of Control group)[…](fluorescence intensity of Test compound non-addition group−fluorescence intensity of Control group))×100
# [4] = molecular target: T2, Human recombinant enteropeptidase (Homo sapiens, UniProt P98073); experiment: Human enteropeptidase inhibition test; format: biochemical; conditions: read-out: Inhibition rate (enteropeptidase); for inhibition at 0.001 µM: compound concentration 1 nM
# T2 construct: purchased BIO Vision Inc. 7529-50
# Method: (Test Example 1): Human Enteropeptidase Inhibition Test
# Human recombinant enteropeptidase (manufactured by BIO Vision Inc., catalog no.: 7529-50) was diluted with an assay buffer (50 mM tricine (pH8.0), 0.01 W/V % Tween 20, 10 mM CaCl2) to prepare an […] enzyme solution. Then, 5FAM-Abu-Gly-Asp-Asp-Lys-Ile-Val-Gly-Gly-Lys (CPQ2)-Lys-Lys-NH2 (manufactured by CHINESE PEPTIDE COMPANY, purity: 94.5) was diluted with the assay buffer to prepare a 1.5 μM substrate solution. Each test compound was dissolved into DMSO, then diluted with the assay buffer 100 times, and further appropriately diluted with an assay buffer comprising 1% DMSO to prepare each compound solution. 10 μL of the compound solution, 15 μL of the assay buffer, and 50 μL of the substrate solution were added to a 96 well black plate (manufactured by Thermo Fisher Scientific Inc., code no.: 9502867), mixed, then 25 μL of the enzyme solution was added thereto, and mixed to start the reaction. Fluorescence intensities at excitation wavelength 485 nm and fluorescence wavelength 535 nm were measured by using a fluorescence plate reader (Flex station 3) (Test compound addition group). Also, the same reaction as described above except for not adding each test compound was carried out (Test compound non-addition group). Additionally, the same reaction as described above except for not adding each test compound and the enzyme was carried out (Control group). Inhibition rate was calculated by the following equation using fluorescence intensity after 20 minutes of reaction start. Inhibition rate (%)=(1−(fluorescence intensity of Test compound addition group−fluorescence intensity of Control group)÷(fluorescence intensity of Test compound non-addition group−fluorescence intensity of Control group))×100
# [5] = compound concentration 10 nM, 20 minutes after reaction start
# [6] = compound concentration 100 nM, 20 minutes after reaction start
# [7] = 20 minutes after reaction start
# T2 sequence (P98073 whole entry): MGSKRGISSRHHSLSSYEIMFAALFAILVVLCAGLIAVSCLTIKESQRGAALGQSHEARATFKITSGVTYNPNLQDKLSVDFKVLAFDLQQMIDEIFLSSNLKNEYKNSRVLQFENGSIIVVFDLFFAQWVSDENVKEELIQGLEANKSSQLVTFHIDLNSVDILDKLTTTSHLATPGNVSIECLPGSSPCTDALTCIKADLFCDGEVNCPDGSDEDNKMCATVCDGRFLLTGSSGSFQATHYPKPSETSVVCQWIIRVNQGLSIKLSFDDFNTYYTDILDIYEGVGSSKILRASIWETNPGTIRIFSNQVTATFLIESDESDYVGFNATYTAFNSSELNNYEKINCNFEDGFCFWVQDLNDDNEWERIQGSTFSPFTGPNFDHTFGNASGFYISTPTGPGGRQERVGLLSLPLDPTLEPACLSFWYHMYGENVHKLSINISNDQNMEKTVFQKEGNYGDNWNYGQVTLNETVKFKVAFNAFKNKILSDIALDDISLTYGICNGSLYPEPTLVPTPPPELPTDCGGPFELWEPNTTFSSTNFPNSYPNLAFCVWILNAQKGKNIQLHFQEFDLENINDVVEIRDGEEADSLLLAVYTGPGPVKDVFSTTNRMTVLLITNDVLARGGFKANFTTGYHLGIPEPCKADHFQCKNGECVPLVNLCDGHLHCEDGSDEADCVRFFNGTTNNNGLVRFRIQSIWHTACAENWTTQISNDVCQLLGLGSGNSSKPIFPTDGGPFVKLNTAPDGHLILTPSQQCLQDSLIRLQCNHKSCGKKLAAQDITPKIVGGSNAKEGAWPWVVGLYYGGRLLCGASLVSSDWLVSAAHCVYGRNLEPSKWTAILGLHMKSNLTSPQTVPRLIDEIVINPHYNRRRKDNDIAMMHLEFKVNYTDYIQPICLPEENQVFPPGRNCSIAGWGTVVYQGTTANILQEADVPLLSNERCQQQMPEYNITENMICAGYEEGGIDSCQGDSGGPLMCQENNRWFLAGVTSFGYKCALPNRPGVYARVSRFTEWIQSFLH
SMILES,AUC ([2]; 10 mg/kg),inhibition at 0.01 µM [3],inhibition at 0.1 µM [3],"inhibition at 0.01 µM [4, 5]","inhibition at 0.1 µM [4, 6]",further results
"Cl.N=C(N)Nc1ccc(C(=O)Oc2ccc(CNS(=O)(=O)N(CCOCCOCCOCCN([C@@H](CC(=O)O)C(=O)O)S(=O)(=O)NCc3ccc(OC(=O)c4ccc(NC(=N)N)cc4)cc3)[C@@H](CC(=O)O)C(=O)O)cc2)cc1 [3-(c), 2S,16S)-3,15-bis(N-(4-(4-guanidinobenzoyl)oxy)benzyl)sulfamoyl)-6,9,12-trioxa-3,15-diazaheptadecane-1,2,16,17-tetracarboxylic acid hydrochloride]",–,–,–,–,–,inhibition in vivo at 100 mg/kg [1]: ≥ 4%
"Cl.N=C(N)Nc1ccc(C(=O)Oc2ccc(CNS(=O)(=O)N(CCOCCOCCOCCOCCOCCN([C@@H](CC(=O)O)C(=O)O)S(=O)(=O)NCc3ccc(OC(=O)c4ccc(NC(=N)N)cc4)cc3)[C@@H](CC(=O)O)C(=O)O)cc2)cc1 [5-(c), (2S,22S)-3,21-bis(N-(4-((4-guanidinobenzoyl)oxy)benzyl)sulfamoyl)-6,9,12,15,18-pentaoxa-3,21-diazatricosane-1,2,22,23-tetracarboxylic acid hydrochloride]",≤ 100 ng·h/mL,–,–,–,–,inhibition in vivo at 100 mg/kg [1]: ≥ 4%
"Cl.N=C(N)Nc1ccc(C(=O)Oc2ccc(CNS(=O)(=O)N(CCOCCOCCOCCOCCOCCOCCN([C@@H](CC(=O)O)C(=O)O)S(=O)(=O)NCc3ccc(OC(=O)c4ccc(NC(=N)N)cc4)cc3)[C@@H](CC(=O)O)C(=O)O)cc2)cc1 [6-(c), (2S,25S)-3,24-bis(N-(4-((4-guanidinobenzoyl)oxy)benzyl)sulfamoyl)-6,9,12,15,18,21-hexaoxa-3,24-diazahexacosane-1,2,25,26-tetracarboxylic acid hydrochloride]",≤ 100 ng·h/mL,–,–,–,–,inhibition in vivo at 100 mg/kg [1]: ≥ 4%
"N=C(N)Nc1ccc(C(=O)Oc2ccc(COC(=O)N(Cc3cccc(C(=O)O)c3)[C@@H](CC(=O)O)C(=O)NCCOCCOCCOCCOCCNC(=O)[C@H](CC(=O)O)N(Cc3cccc(C(=O)O)c3)C(=O)OCc3ccc(OC(=O)c4ccc(NC(=N)N)cc4)cc3)cc2)cc1 [16-(b), (3S,22S)-3,22-bis((3-carboxybenzyl) (((4-(14-guanidinobenzoyl)oxy)benzyl)oxy)carbonyl)amino)-4,21-dioxo-8,11,14,17-tetraoxa-5,20-diazatetracosane-1,24-dioic acid trifluoroacetate]",–,≥ 50%,≥ 50%,–,–,inhibition at 0.01 µM [4]: ≥ 50%; inhibition at 0.1 µM [4]: ≥ 50%; AUC ([2]; 9 mg/kg): ≤ 100 ng·h/mL
"N=C(N)Nc1ccc2c(c1)CCCOc1c(cccc1C(=O)N(CCOCCOCCN(C(=O)c1cccc3c1OCCCc1cc(NC(=N)N)ccc1C(=O)O3)[C@@H](CC(=O)O)C(=O)O)[C@@H](CC(=O)O)C(=O)O)OC2=O [20-(d), (2S,13S)-3,12-bis(10-guanidino-13-oxo-6,7,8,13-tetrahydrodibenzo[b,f][1,4]dioxecin-4-carbonyl)-6,9-dioxa-3,12-diazatetradecane-1,2,13,14-tetracarboxylic acid]",–,–,–,–,–,inhibition in vivo at 50 mg/kg [1]: ≥ 4%
N=C(N)Nc1ccc(C(=O)Oc2ccc(CN(CCOCCOCCN(Cc3ccc(OC(=O)c4ccc(NC(=N)N)cc4)cc3)S(=O)(=O)N[C@@H](CC(=O)O)C(=O)O)S(=O)(=O)N[C@@H](CC(=O)O)C(=O)O)cc2)cc1 [24-(a)],–,≥ 50%,≥ 50%,≥ 50%,≥ 50%,inhibition in vivo at 50 mg/kg [1]: ≥ 4%; inhibition at 0.001 µM [3]: ≥ 50%

# Now from value to compound, other results behind:
AUC ([2]; 10 mg/kg),inhibition at 0.01 µM [3],inhibition at 0.1 µM [3],"inhibition at 0.01 µM [4, 5]","inhibition at 0.1 µM [4, 6]",SMILES,further results
≤ 100 ng·h/mL,–,–,–,–,N=C(N)Nc1ccc(C(=O)Oc2ccc(CNS(=O)(=O)N(CCOCCOCCN([C@@H](CC(=O)O)C(=O)O)S(=O)(=O)NCc3ccc(OC(=O)c4ccc(NC(=N)N)cc4)cc3)[C@@H](CC(=O)O)C(=O)O)cc2)cc1 [2-(c)],inhibition in vivo at 30 mg/kg ([1]; oral 30 mg/kg once daily for 2 weeks): ≥ 4%
≤ 100 ng·h/mL,–,–,–,–,Cl.N=C(N)Nc1ccc(C(=O)Oc2ccc(CNS(=O)(=O)N(CCOCCOCCOCCN([C@@H](CC(=O)O)C(=O)O)S(=O)(=O)NCc3ccc(OC(=O)c4ccc(NC(=N)N)cc4)cc3)[C@@H](CC(=O)O)C(=O)O)cc2)cc1 [3-(c)],–
–,≥ 50%,≥ 50%,≥ 50%,≥ 50%,"N=C(N)Nc1ccc(C(=O)Oc2ccc(COC(=O)N(CCCCCCCCCCCCN(C(=O)OCc3ccc(OC(=O)c4ccc(NC(=N)N)cc4)cc3)C(CC(=O)O)C(=O)O)C(CC(=O)O)C(=O)O)cc2)cc1 (centres unmarked) [11-(b), 2,2′-(1,20-bis(4-((4-guanidinobenzoyl)oxy)phenyl 3,18-dioxo-2,19-dioxa-4,17-diazaicosane-4,17-diyl)disuccinic acid trifluoroacetate]",AUC ([2]; 9 mg/kg): ≤ 100 ng·h/mL
–,≥ 50%,≥ 50%,≥ 50%,≥ 50%,"N=C(N)Nc1ccc(C(=O)Oc2ccc(COC(=O)N(CC(=O)O)[C@@H](CC(=O)O)C(=O)N[C@@H](CC(=O)O)C(=O)NCCOCCOCCOCCOCCNC(=O)[C@H](CC(=O)O)NC(=O)[C@H](CC(=O)O)N(CC(=O)O)C(=O)OCc3ccc(OC(=O)c4ccc(NC(=N)N)cc4)cc3)cc2)cc1 [15-(b), (4S,7S,26S,29)-4,7,26,29-tetrakis(carboxymethyl)-3,30-bis((4-((4-guanidinobenzoyl)oxy)benzyl)oxy)carbonyl)-5,8,25,28-tetraoxo-12,15,18,21-tetraoxa-3,6,9,24,27,30-hexaazadotriacontane-1,32-dioic acid trifluoroacetate]","inhibition at 0.001 µM [4, 7]: ≥ 50%; AUC ([2]; 9 mg/kg): ≤ 100 ng·h/mL"
–,≥ 50%,≥ 50%,≥ 50%,≥ 50%,"N=C(N)Nc1ccc(C(=O)Oc2cccc(CNS(=O)(=O)N(CCOCCOCCN([C@@H](CC(=O)O)C(=O)O)S(=O)(=O)NCc3cccc(OC(=O)c4ccc(NC(=N)N)cc4)c3)[C@@H](CC(=O)O)C(=O)O)c2)cc1 [25-(b), (2S,13S)-3,12-bis(N-(3-((4-guanidinobenzoyl)oxy)benzyl)sulfamoyl)-6,9-dioxa-3,12-diazatetradecane-1,2,13,14-tetracarboxylic acid]","inhibition in vivo at 50 mg/kg [1]: ≥ 4%; inhibition at 0.001 µM [4, 7]: ≥ 50%"
≤ 100 ng·h/mL,≥ 50%,≥ 50%,≥ 50%,≥ 50%,N=C(N)Nc1ccc(C(=O)Oc2cccc(C(=O)N(CCOCCN(C(=O)c3cccc(OC(=O)c4ccc(NC(=N)N)cc4)c3)[C@@H](CC(=O)O)C(=O)O)[C@@H](CC(=O)O)C(=O)O)c2)cc1 [30-(a)],"inhibition at 0.001 µM [3]: ≥ 50%; inhibition at 0.001 µM [4, 7]: ≥ 50%"
